Measurements from PMC9881673, “Investigating the potential anticancer activities of antibiotics as topoisomerase II inhibitors and DNA intercalators: in vitro, molecular docking, molecular dynamics, and SAR studies” (Journal of Enzyme Inhibition and Medicinal Chemistry, 2023).

How the values were obtained:
[1] = MTT antiproliferative assay, HepG-2; assay type: cell-based; details: human, HepG-2 hepatocellular carcinoma cells, HepG-2, MTT, read-out: IC50 (cytotoxicity)
Procedure: (§1) DOX was used as standard (920 µM).

[2] = MTT antiproliferative assay, HCT-116; assay type: cell-based; details: human, HCT-116 colorectal carcinoma cells, HCT-116, MTT, read-out: IC50 (cytotoxicity)
Procedure: as §1

[3] = target: T1, TOP-2 enzyme (Homo sapiens, UniProt P11388); test: Topoisomerase II inhibitory assay (TopoGEN plasmid-based kit, DNA decatenation); assay type: biochemical; details: decatenation of DNA by TOP-2; read-out: IC50 (TOP-2 inhibition)
T1 construct: purchased TOPOGEN, CO, USA TG1001
Procedure: SP, RO, AZ, CL, and ER (as ethyl succinate) were provided from NODQCAR at a purity > 99.87%. Human mammary tumours, hepatocellular carcinoma (HepG2), and colorectal cancer (HCT-116) cell lines were obtained from VACSERA; Egypt. RPMI 1640 doped with 10% FBS was provided from VACSERA; Egypt. The inhibitory potential against TOP-2 was assessed by the Topo GEN assay kit (TOPOGEN, CO, USA).
Results were reported as IC50 and compared to DOX.

[4] = in vitro; details: human, MCF-7 breast cancer cells

T1 sequence (P11388 whole entry): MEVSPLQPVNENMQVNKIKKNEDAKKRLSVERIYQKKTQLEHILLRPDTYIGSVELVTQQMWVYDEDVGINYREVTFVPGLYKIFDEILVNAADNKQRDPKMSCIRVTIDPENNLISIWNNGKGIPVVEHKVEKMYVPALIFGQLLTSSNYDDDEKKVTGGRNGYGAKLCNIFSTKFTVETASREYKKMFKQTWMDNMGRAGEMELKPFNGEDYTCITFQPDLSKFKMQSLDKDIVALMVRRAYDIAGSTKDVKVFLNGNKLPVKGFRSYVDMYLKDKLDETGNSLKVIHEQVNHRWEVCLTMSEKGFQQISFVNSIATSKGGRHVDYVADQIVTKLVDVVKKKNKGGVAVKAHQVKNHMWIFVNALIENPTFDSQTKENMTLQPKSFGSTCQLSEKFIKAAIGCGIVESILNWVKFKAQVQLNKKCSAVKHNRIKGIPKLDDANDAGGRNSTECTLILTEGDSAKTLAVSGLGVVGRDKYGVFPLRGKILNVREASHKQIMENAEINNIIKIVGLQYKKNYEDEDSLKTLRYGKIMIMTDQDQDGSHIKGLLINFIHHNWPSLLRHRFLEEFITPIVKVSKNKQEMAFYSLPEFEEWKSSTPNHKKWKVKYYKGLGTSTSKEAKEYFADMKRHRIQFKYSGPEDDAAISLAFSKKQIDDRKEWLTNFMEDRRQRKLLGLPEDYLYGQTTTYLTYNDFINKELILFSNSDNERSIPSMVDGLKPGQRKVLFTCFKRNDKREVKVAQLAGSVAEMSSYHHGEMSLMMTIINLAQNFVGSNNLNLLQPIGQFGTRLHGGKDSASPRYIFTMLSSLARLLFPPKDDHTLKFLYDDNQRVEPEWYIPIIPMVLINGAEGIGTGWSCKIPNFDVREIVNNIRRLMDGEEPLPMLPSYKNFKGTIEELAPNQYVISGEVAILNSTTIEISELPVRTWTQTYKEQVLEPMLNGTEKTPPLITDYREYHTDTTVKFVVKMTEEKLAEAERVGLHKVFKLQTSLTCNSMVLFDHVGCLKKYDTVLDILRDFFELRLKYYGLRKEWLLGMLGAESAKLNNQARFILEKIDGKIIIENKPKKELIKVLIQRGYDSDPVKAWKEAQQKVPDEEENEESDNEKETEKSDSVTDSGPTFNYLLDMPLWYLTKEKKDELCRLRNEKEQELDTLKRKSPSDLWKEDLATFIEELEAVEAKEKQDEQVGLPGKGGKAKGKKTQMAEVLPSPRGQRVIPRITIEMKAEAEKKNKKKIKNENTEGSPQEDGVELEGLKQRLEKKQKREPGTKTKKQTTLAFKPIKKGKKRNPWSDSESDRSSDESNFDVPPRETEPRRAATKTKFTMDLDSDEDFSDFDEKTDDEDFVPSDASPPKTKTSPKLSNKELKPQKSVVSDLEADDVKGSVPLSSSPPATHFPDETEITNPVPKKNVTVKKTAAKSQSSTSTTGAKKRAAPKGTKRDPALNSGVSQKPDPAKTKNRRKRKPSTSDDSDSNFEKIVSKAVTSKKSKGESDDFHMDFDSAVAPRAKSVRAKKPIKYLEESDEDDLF

Row | SMILES | IC50 at 24 h [1] [µM] | IC50 at 24 h [2] [µM] | IC50 [3] [µM] | IC50 at 24 h [4] [µM]
1 | COC1C(O)CC(=O)OC(C)CC=CC=CC(OC2CCC(N(C)C)C(C)O2)C(C)CC(CC=O)C1OC1OC(C)C(OC2CC(C)(O)C(O)C(C)O2)C(N(C)C)C1O (centres unmarked) [SP, spiramycin] | 20.9 ± 1.33 | 12.2 ± 3.27 | 21.2 ± 1.19 | 0.67 ± 0.43
2 | COc1cccc2c1C(=O)c1c(O)c3c(c(O)c1C2=O)C[C@@](O)(C(=O)CO)C[C@@H]3O[C@H]1C[C@H](N)[C@H](O)[C@H](C)O1 [DOX, doxorubicin] | 3.6 ± 0.07 | 1.6 ± 0.05 | 6.37 ± 0.38 | 0.49 ± 0.1
3 | CC[C@H]1OC(=O)[C@H](C)[C@@H](O[C@H]2C[C@@](C)(OC)[C@@H](O)[C@H](C)O2)[C@H](C)[C@@H](O[C@@H]2O[C@H](C)C[C@H](N(C)C)[C@H]2O)[C@](C)(OC)C[C@@H](C)C(=O)[C@H](C)[C@@H](O)[C@]1(C)O [CL, clarithromycin] | 14.8 ± 0.15 | 2.74 ± 0.42 | 25.6 ± 1.08 | 1.39 ± 0.15
4 | CC[C@H]1OC(=O)[C@H](C)[C@@H](O[C@H]2C[C@@](C)(OC)[C@@H](O)[C@H](C)O2)[C@H](C)[C@@H](O[C@@H]2O[C@H](C)C[C@H](N(C)C)[C@H]2O)[C@](C)(O)C[C@@H](C)/C(=N\OCOCCOC)[C@H](C)[C@@H](O)[C@]1(C)O [RO, roxithromycin] | 32 ± 0.18 | 0.097 ± 0.024 | 13.1 ± 0.77 | 7.9 ± 0.79
5 | CC[C@H]1OC(=O)[C@H](C)[C@@H](O[C@H]2C[C@@](C)(OC)[C@@H](O)[C@H](C)O2)[C@H](C)[C@@H](O[C@@H]2O[C@H](C)C[C@H](N(C)C)[C@H]2O)[C@](C)(O)C[C@@H](C)CN(C)[C@H](C)[C@@H](O)[C@]1(C)O [AZ, azithromycin] | 32 ± 0.18 | 2.08 ± 0.05 | 36.1 ± 2.11 | 
6 | CC[C@H]1OC(=O)[C@H](C)[C@@H](O[C@H]2C[C@@](C)(OC)[C@@H](O)[C@H](C)O2)[C@H](C)[C@@H](O[C@@H]2O[C@H](C)C[C@H](N(C)C)[C@H]2O)[C@](C)(O)C[C@@H](C)C(=O)[C@H](C)[C@@H](O)[C@]1(C)O [ER, erythromycin] |  |  | 11.6 ± 0.7 | 
